Results published in US7034056B2, “Aryl and biaryl compounds having MCH modulatory activity” (Pharmacopeia Drug Discovery, inc., priority 2001, dated 2006).

The compounds below were run against T1, hMCHR (MCH receptor) (Homo sapiens, UniProt Q99705) (assay: MCH Assay PCOP Protocol ([125I]-MCH SPA binding to hMCHR-CHO membranes)). Conditions: [125I]-MCH binding to hMCHR-CHO membranes; class symbols for ranges of Ki; read-out: Activity (Ki range).
T1 construct: (or internally produced); host or cells: CHO (Chinese hamster ovary) cells, membrane preparation
Method in brief: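 SPA binding with 10 μg hMCHR-CHO membranes and WGA-SPA beads in 25 mM HEPES pH 7.4, 10 mM NaCl, 10 mM MgCl2, 5 mM MnCl2, 0.1% BSA.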
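Also: A 0.4–50 nM B 51–500 nM C 501–2500 nM.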

T1 sequence (Q99705 whole entry): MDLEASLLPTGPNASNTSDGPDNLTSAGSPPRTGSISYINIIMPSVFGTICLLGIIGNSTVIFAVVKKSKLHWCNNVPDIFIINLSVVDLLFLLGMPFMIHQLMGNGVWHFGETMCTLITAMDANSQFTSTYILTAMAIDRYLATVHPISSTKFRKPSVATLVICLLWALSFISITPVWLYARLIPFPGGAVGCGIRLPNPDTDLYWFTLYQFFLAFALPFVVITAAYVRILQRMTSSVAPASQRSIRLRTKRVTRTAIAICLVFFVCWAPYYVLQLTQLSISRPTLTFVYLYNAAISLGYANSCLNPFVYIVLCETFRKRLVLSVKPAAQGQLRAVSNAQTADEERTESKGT

Row | SMILES | Ki
1 | O=C(NCc1ccc(F)c(F)c1)NCC(CCN1CCC(N2CCCCC2)CC1)c1ccc(Cl)c(Cl)c1 (centres unmarked) [Example 258] | 51 to 500 nM
2 | COc1cc(CNCCC(CNC(=O)Nc2ccc(Cl)c(Cl)c2)c2ccc(Cl)c(Cl)c2)cc(OC)c1OC (centres unmarked) [Example 259] | 51 to 500 nM
3 | CCOC(=O)N1CCC(NCCC(CNC(=O)Nc2ccc(F)c(Cl)c2)c2ccc(Cl)c(Cl)c2)CC1 (centres unmarked) [Example 260] | 51 to 500 nM
4 | O=C(NCC(CCNCc1ccc2c(c1)OCO2)c1ccc(Cl)c(Cl)c1)Nc1ccc(F)c(Cl)c1 (centres unmarked) [Example 261] | 51 to 500 nM
5 | CCOC(=O)N1CCC(NCCC(CNC(=O)Nc2ccc(F)c(F)c2)c2ccc(Cl)c(Cl)c2)CC1 (centres unmarked) [Example 262] | 51 to 500 nM
6 | O=C(NCC(CCNC1CCC1)c1ccc(Cl)c(Cl)c1)Nc1ccc(F)c(Cl)c1 (centres unmarked) [Example 263] | 501 to 2500 nM
7 | CCOC(=O)N1CCC(NCCC(CNC(=O)Nc2ccc(F)c([N+](=O)[O-])c2)c2ccc(Cl)c(Cl)c2)CC1 (centres unmarked) [Example 264] | 501 to 2500 nM
8 | O=C(NCC(CCNC1CCC1)c1ccc(Cl)c(Cl)c1)Nc1ccc(F)c(F)c1 (centres unmarked) [Example 265] | 501 to 2500 nM
9 | O=C(NCC(CCNC1CCCCC1)c1ccc(Cl)cc1)Nc1cc(Cl)cc(Cl)c1 (centres unmarked) [Example 266] | 51 to 500 nM
10 | O=C(NCC(CCNC1CCCC1)c1ccc(Cl)cc1)Nc1cc(Cl)cc(Cl)c1 (centres unmarked) [Example 267] | 51 to 500 nM
11 | Cc1ccc(C(CCNC2CCCCC2)CNC(=O)Nc2cc(Cl)cc(Cl)c2)cc1 (centres unmarked) [Example 268] | 51 to 500 nM
12 | Cc1ccc(C(CCNC2CCCC2)CNC(=O)Nc2cc(C(F)(F)F)cc(C(F)(F)F)c2)cc1 (centres unmarked) [Example 269] | 51 to 500 nM
13 | Cc1ccc(C(CCNC2CCCCC2)CNC(=O)Nc2cc(C(F)(F)F)cc(C(F)(F)F)c2)cc1 (centres unmarked) [Example 270] | 51 to 500 nM
14 | O=C(NCC(CCNC1CCC1)c1ccc(Cl)cc1)Nc1cc(Cl)cc(Cl)c1 (centres unmarked) [Example 273] | 51 to 500 nM
15 | Cc1ccc(C(CCNC2CCC2)CNC(=O)Nc2cc(C(F)(F)F)cc(C(F)(F)F)c2)cc1 (centres unmarked) [Example 274] | 51 to 500 nM
16 | CCOC(=O)N1CCC(NCCC(CNC(=O)Nc2cc(Cl)cc(Cl)c2)c2ccc(Cl)c(Cl)c2)CC1 (centres unmarked) [Example 277] | 51 to 500 nM
17 | O=C(NCC(CCNCCc1ccc(O)cc1)c1ccc(Cl)c(Cl)c1)Nc1ccc(Cl)c(Cl)c1 (centres unmarked) [Example 278] | 51 to 500 nM
18 | O=C(NCC(CCNC1CCCC1)c1ccc(Cl)c(Cl)c1)Nc1ccc(Cl)c(Cl)c1 (centres unmarked) [Example 279] | 51 to 500 nM

Row | SMILES | Ki
19 | O=C(NCC(CCNC1CCCC1)c1ccc(Cl)c(Cl)c1)Nc1cc(Cl)cc(Cl)c1 (centres unmarked) [Example 280] | 51 to 500 nM
20 | CCOC(=O)N1CCC(NCCC(CNC(=O)Nc2cccc(C(F)(F)F)c2)c2ccc(Cl)c(Cl)c2)CC1 (centres unmarked) [Example 281] | 51 to 500 nM
21 | O=C(NCC(CCNC1CCC1)c1ccc(Cl)c(Cl)c1)Nc1ccc(Cl)c(Cl)c1 (centres unmarked) [Example 282] | 51 to 500 nM
22 | O=C(NCC(CCNC1CCC1)c1ccc(Cl)c(Cl)c1)Nc1cccc(C(F)(F)F)c1 (centres unmarked) [Example 283] | 51 to 500 nM
23 | Cn1cnc(CCNCCC(CNC(=O)Nc2ccc(Cl)c(Cl)c2)c2ccc(Cl)c(Cl)c2)c1 (centres unmarked) [Example 284] | 51 to 500 nM
24 | O=C(NCC(CCN1CCC(N2CCCCC2)CC1)c1ccc(Cl)c(Cl)c1)Nc1ccc([N+](=O)[O-])c(Cl)c1 (centres unmarked) [Example 286] | 51 to 500 nM
25 | O=C(NCC(CCN1CCCC1)c1ccc(Cl)c(Cl)c1)Nc1ccc(Cl)c(Cl)c1 (centres unmarked) [Example 287] | 51 to 500 nM
26 | CCCN(CC)CCC(CNC(=O)Nc1ccc(Cl)c(Cl)c1)c1ccc(Cl)c(Cl)c1 (centres unmarked) [Example 289] | 51 to 500 nM
27 | O=C(NCC(CCNC1CCCC1)c1ccc(Cl)c(Cl)c1)Nc1cccc(C(F)(F)F)c1 (centres unmarked) [Example 290] | 51 to 500 nM
28 | CN(C)C1CCN(CCC(CNC(=O)Nc2ccc(Cl)c(Cl)c2)c2ccc(Cl)c(Cl)c2)C1 (centres unmarked) [Example 291] | 51 to 500 nM
29 | CN(C)C1CCN(CCC(CNC(=O)Nc2cc(Cl)cc(Cl)c2)c2ccc(Cl)c(Cl)c2)C1 (centres unmarked) [Example 292] | 51 to 500 nM
30 | O=C(NCC(CCNCc1ccc2c(c1)OCO2)c1ccc(Cl)c(Cl)c1)Nc1cc(Cl)cc(Cl)c1 (centres unmarked) [Example 295] | 501 to 2500 nM
31 | O=C(NCC(CCNCc1ccc2c(c1)OCO2)c1ccc(Cl)c(Cl)c1)Nc1ccc(Cl)c(Cl)c1 (centres unmarked) [Example 296] | 501 to 2500 nM
32 | CN1CCCC1CCNCCC(CNC(=O)Nc1ccc(Cl)c(Cl)c1)c1ccc(Cl)c(Cl)c1 (centres unmarked) [Example 298] | 501 to 2500 nM
33 | O=C(NCC(CCN1CCCC1)c1ccc(Cl)c(Cl)c1)Nc1cccc(C(F)(F)F)c1 (centres unmarked) [Example 299] | 501 to 2500 nM
34 | CN1CCCC1CCNCCC(CNC(=O)Nc1cccc(C(F)(F)F)c1)c1ccc(Cl)c(Cl)c1 (centres unmarked) [Example 300] | 501 to 2500 nM
35 | CN1CCCC1CCNCCC(CNC(=O)Nc1cc(Cl)cc(Cl)c1)c1ccc(Cl)c(Cl)c1 (centres unmarked) [Example 301] | 501 to 2500 nM

Results, then the compound that gave them:

Row | Ki | SMILES
36 | 51 to 500 nM | COc1cc(-c2ccc(C(CCNC3CCCC3)CNC(=O)Nc3cc(Cl)cc(Cl)c3)cc2)cc(OC)c1OC (centres unmarked) [Example 228]
37 | 51 to 500 nM | O=C(NCC(CCNC1CCCC1)c1ccc(-c2ccsc2)cc1)Nc1cc(Cl)cc(Cl)c1 (centres unmarked) [Example 229]
38 | 51 to 500 nM | O=C(NCC(CCNC1CCCC1)c1ccc(-c2cccs2)cc1)Nc1cc(Cl)cc(Cl)c1 (centres unmarked) [Example 230]
39 | 51 to 500 nM | CN(C)CCCNCCC(CNC(=O)Nc1cc(Cl)cc(Cl)c1)c1ccc(-c2cccs2)cc1 (centres unmarked) [Example 231]
40 | 51 to 500 nM | CN(C)CCCNCCC(CNC(=O)Nc1cc(Cl)cc(Cl)c1)c1ccc(-c2ccccc2Cl)cc1 (centres unmarked) [Example 232]
41 | 51 to 500 nM | CN(C)CCCNCCC(CNC(=O)Nc1cc(Cl)cc(Cl)c1)c1ccc(-c2ccccc2)cc1 (centres unmarked) [Example 233]
42 | 51 to 500 nM | CN(C)CCCNCCC(CNC(=O)Nc1cc(Cl)cc(Cl)c1)c1ccc(-c2ccsc2)cc1 (centres unmarked) [Example 235]
43 | 51 to 500 nM | O=C(NCC(CCNC1CCCC1)c1ccc(-c2cc(Cl)cc(Cl)c2)cc1)Nc1cc(Cl)cc(Cl)c1 (centres unmarked) [Example 236]
44 | 51 to 500 nM | CN(C)CCCNCCC(CNC(=O)Nc1cc(Cl)cc(Cl)c1)c1ccc(-c2ccc(F)cc2)cc1 (centres unmarked) [Example 237]
45 | 51 to 500 nM | COc1ccccc1-c1ccc(C(CCNC2CCCC2)CNC(=O)Nc2cc(Cl)cc(Cl)c2)cc1 (centres unmarked) [Example 238]
46 | 51 to 500 nM | COc1ccc(-c2ccc(C(CCNCCCN(C)C)CNC(=O)Nc3cc(Cl)cc(Cl)c3)cc2)c(OC)c1 (centres unmarked) [Example 239]
47 | 51 to 500 nM | COc1ccc(-c2ccc(C(CCNCCCN(C)C)CNC(=O)Nc3cc(Cl)cc(Cl)c3)cc2)cc1 (centres unmarked) [Example 240]
48 | 51 to 500 nM | COc1ccc(-c2ccc(C(CCNC3CCCC3)CNC(=O)Nc3cc(Cl)cc(Cl)c3)cc2)cc1 (centres unmarked) [Example 241]
49 | 51 to 500 nM | O=C(NCC(CCNC1CCCC1)c1ccc(-c2ccc(O)cc2)cc1)Nc1cc(Cl)cc(Cl)c1 (centres unmarked) [Example 242]
50 | 51 to 500 nM | O=C(NCC(CCNC1CCCC1)c1ccc(-c2ccc(F)cc2)cc1)Nc1cc(Cl)cc(Cl)c1 (centres unmarked) [Example 243]
51 | 51 to 500 nM | O=C(NCC(CCNC1CCCC1)c1ccc(-c2ccc(Cl)c(Cl)c2)cc1)Nc1cc(Cl)cc(Cl)c1 (centres unmarked) [Example 245]
52 | 51 to 500 nM | CN(C)CCCNCCC(CNC(=O)Nc1cc(Cl)cc(Cl)c1)c1ccc(-c2ccc(Cl)cc2)cc1 (centres unmarked) [Example 246]
53 | 51 to 500 nM | CN(C)CCCNCCC(CNC(=O)Nc1cc(Cl)cc(Cl)c1)c1ccc(-c2ccc(Cl)c(Cl)c2)cc1 (centres unmarked) [Example 247]
54 | 51 to 500 nM | O=C(NCC(CCNC1CCCC1)c1ccc(-c2cccc(C(=O)O)c2)cc1)Nc1cc(Cl)cc(Cl)c1 (centres unmarked) [Example 248]
55 | 51 to 500 nM | Cc1ccc(-c2ccc(C(CCNC3CCCC3)CNC(=O)Nc3cc(Cl)cc(Cl)c3)cc2)cc1 (centres unmarked) [Example 249]

Row | Ki | SMILES
56 | 51 to 500 nM | O=C(NCC(CCNC1CCCC1)c1ccc(-c2ccc(C(F)(F)F)cc2)cc1)Nc1cc(Cl)cc(Cl)c1 (centres unmarked) [Example 250]
57 | 51 to 500 nM | CN(C)CCCNCCC(CNC(=O)Nc1cc(Cl)cc(Cl)c1)c1ccc(-c2ccc(O)cc2)cc1 (centres unmarked) [Example 251]
58 | 51 to 500 nM | COc1ccccc1-c1ccc(C(CCNCCCN(C)C)CNC(=O)Nc2cc(Cl)cc(Cl)c2)cc1 (centres unmarked) [Example 252]
59 | 501 to 2500 nM | O=C(NCC(CCNC1CCCC1)c1ccc(-c2cc(C(F)(F)F)cc(C(F)(F)F)c2)cc1)Nc1cc(Cl)cc(Cl)c1 (centres unmarked) [Example 253]
60 | 501 to 2500 nM | Cc1ccc(-c2ccc(C(CCNCCCN(C)C)CNC(=O)Nc3cc(Cl)cc(Cl)c3)cc2)cc1 (centres unmarked) [Example 254]
61 | 501 to 2500 nM | CN(C)CCCNCCC(CNC(=O)Nc1cc(Cl)cc(Cl)c1)c1ccc(-c2ccc(C(F)(F)F)cc2)cc1 (centres unmarked) [Example 255]
62 | 501 to 2500 nM | CN(C)CCCNCCC(CNC(=O)Nc1cc(Cl)cc(Cl)c1)c1ccc(-c2cc(C(F)(F)F)cc(C(F)(F)F)c2)cc1 (centres unmarked) [Example 256]
63 | 501 to 2500 nM | COc1cc(-c2ccc(C(CCNCCCN(C)C)CNC(=O)Nc3cc(Cl)cc(Cl)c3)cc2)cc(OC)c1OC (centres unmarked) [Example 257]
64 | 51 to 500 nM | Cc1ccc(C(CCNC2CCCC2)CNC(=O)Nc2cc(Cl)cc(Cl)c2)cc1 (centres unmarked) [Example 271]
65 | 51 to 500 nM | Cc1ccc(C(CCNC2CCC2)CNC(=O)Nc2cc(Cl)cc(Cl)c2)cc1 (centres unmarked) [Example 272]
66 | 501 to 2500 nM | Cc1ccc(C(CCNc2c(C)noc2C)CNC(=O)Nc2cc(Cl)cc(Cl)c2)cc1 (centres unmarked) [Example 275]
67 | 51 to 500 nM | CCCN(CC)CCC(CNC(=O)Nc1cccc(C(F)(F)F)c1)c1ccc(Cl)c(Cl)c1 (centres unmarked) [Example 288]
68 | 51 to 500 nM | O=C(NCC(CCNCCc1ccc(O)cc1)c1ccc(Cl)c(Cl)c1)Nc1cccc(C(F)(F)F)c1 (centres unmarked) [Example 293]
69 | 501 to 2500 nM | O=C(NCC(CCNCCc1c[nH]c2ccccc12)c1ccc(Cl)c(Cl)c1)Nc1cc(Cl)cc(Cl)c1 (centres unmarked) [Example 294]
70 | 501 to 2500 nM | Cn1cnc(CCNCCC(CNC(=O)Nc2cc(Cl)cc(Cl)c2)c2ccc(Cl)c(Cl)c2)c1 (centres unmarked) [Example 297]
71 | 501 to 2500 nM | O=C(NCC(CCNCc1ccc2c(c1)OCO2)c1ccc(Cl)c(Cl)c1)Nc1cccc(C(F)(F)F)c1 (centres unmarked) [Example 302]
72 | 501 to 2500 nM | Cn1cnc(CCNCCC(CNC(=O)Nc2cccc(C(F)(F)F)c2)c2ccc(Cl)c(Cl)c2)c1 (centres unmarked) [Example 303]
73 | 501 to 2500 nM | CN(C)CCCNCCC(CNC(=O)Nc1cc(Cl)cc(Cl)c1)c1ccc(Cl)c(Cl)c1 (centres unmarked) [Example 304]
74 | 501 to 2500 nM | CN(C)CCCNCCC(CNC(=O)Nc1ccc(Cl)c(Cl)c1)c1ccc(Cl)c(Cl)c1 (centres unmarked) [Example 305]
